Assay results published in PubChem BioAssay (NCI).
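Where inhibition never reached the appropriate level, the endpoint shown equals the highest concentration tested. Otherwise, values were interpolated linearly from a five-concentration, 48-hour dose response in 96-well plates. Here, GI50 denotes the concentration required for 50% inhibition of growth. The concentration for full growth arrest is given as TGI.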

Tests used:
Test in all cases: inhibition of tumour cell growth, NCI panel, 48 h
786-0 renal = tested on: 786-0 renal
A498 renal = tested on: A498 renal
A549 NSCLC = tested on: A549 NSCLC
ACHN renal = tested on: ACHN renal
BT-549 breast = tested on: BT-549 breast
CAKI-1 renal = tested on: CAKI-1 renal
CCRF-CEM leukemia = tested on: CCRF-CEM leukemia
COLO 205 colon = tested on: COLO 205 colon
DU-145 prostate = tested on: DU-145 prostate
HCC-2998 colon = tested on: HCC-2998 colon
HCT-116 colon = tested on: HCT-116 colon
HCT-15 colon = tested on: HCT-15 colon
HL-60(TB) leukemia = tested on: HL-60(TB) leukemia
HOP-62 NSCLC = tested on: HOP-62 NSCLC
HOP-92 NSCLC = tested on: HOP-92 NSCLC
HS 578T breast = tested on: HS 578T breast
HT29 colon = tested on: HT29 colon
IGROV1 ovarian = tested on: IGROV1 ovarian
K-562 leukemia = tested on: K-562 leukemia
KM12 colon = tested on: KM12 colon
LOX IMVI melanoma = tested on: LOX IMVI melanoma
M14 melanoma = tested on: M14 melanoma
MALME-3M melanoma = tested on: MALME-3M melanoma
MCF7 breast = tested on: MCF7 breast
MDA-MB-231 breast = tested on: MDA-MB-231 breast
MDA-MB-435 = tested on: MDA-MB-435
MOLT-4 leukemia = tested on: MOLT-4 leukemia
NCI-H226 lung = tested on: NCI-H226 lung
NCI-H23 lung = tested on: NCI-H23 lung
NCI-H460 lung = tested on: NCI-H460 lung
NCI-H522 lung = tested on: NCI-H522 lung
NCI/ADR-RES ovarian = tested on: NCI/ADR-RES ovarian
OVCAR-3 ovarian = tested on: OVCAR-3 ovarian
OVCAR-4 ovarian = tested on: OVCAR-4 ovarian
OVCAR-5 ovarian = tested on: OVCAR-5 ovarian
OVCAR-8 ovarian = tested on: OVCAR-8 ovarian
PC-3 prostate = tested on: PC-3 prostate
RPMI-8226 leukemia = tested on: RPMI-8226 leukemia
RXF 393 renal = tested on: RXF 393 renal
SF-268 CNS = tested on: SF-268 CNS
SF-295 CNS = tested on: SF-295 CNS
SF-539 CNS = tested on: SF-539 CNS
SK-MEL-2 melanoma = tested on: SK-MEL-2 melanoma
SK-MEL-28 melanoma = tested on: SK-MEL-28 melanoma
SK-MEL-5 melanoma = tested on: SK-MEL-5 melanoma
SK-OV-3 ovarian = tested on: SK-OV-3 ovarian
SN12C renal = tested on: SN12C renal
SNB-19 CNS = tested on: SNB-19 CNS
SNB-75 CNS = tested on: SNB-75 CNS
SR leukemia = tested on: SR leukemia
SW-620 colon = tested on: SW-620 colon
T-47D breast = tested on: T-47D breast
TK-10 renal = tested on: TK-10 renal
U251 CNS = tested on: U251 CNS
UACC-257 melanoma = tested on: UACC-257 melanoma
UACC-62 melanoma = tested on: UACC-62 melanoma
UO-31 renal = tested on: UO-31 renal

Cc1cc2c(C)c3cc(C)c(N)cc3nc2cc1N
GI50 (786-0 renal): 929 nM | TGI (786-0 renal): 8840 nM | GI50 (A498 renal): 363 nM | TGI (A498 renal): 2010 nM | GI50 (A549 NSCLC): 636 nM | TGI (A549 NSCLC): 3160 nM | GI50 (ACHN renal): 422 nM | TGI (ACHN renal): 3820 nM | GI50 (BT-549 breast): 3120 nM | TGI (BT-549 breast): 11600 nM | GI50 (CAKI-1 renal): 2030 nM | TGI (CAKI-1 renal): 8660 nM | GI50 (CCRF-CEM leukemia): 930 nM | TGI (CCRF-CEM leukemia): 10600 nM | GI50 (COLO 205 colon): 581 nM | TGI (COLO 205 colon): 3310 nM | GI50 (DU-145 prostate): 749 nM | TGI (DU-145 prostate): 5300 nM | GI50 (HCC-2998 colon): 1120 nM | TGI (HCC-2998 colon): 4910 nM | GI50 (HCT-116 colon): 383 nM | TGI (HCT-116 colon): 6140 nM | GI50 (HCT-15 colon): 1430 nM | TGI (HCT-15 colon): 10600 nM | GI50 (HL-60(TB) leukemia): 3000 nM | TGI (HL-60(TB) leukemia): 10100 nM | GI50 (HOP-62 NSCLC): 1110 nM | TGI (HOP-62 NSCLC): 7080 nM | GI50 (HOP-92 NSCLC): 1540 nM | TGI (HOP-92 NSCLC): 5130 nM | GI50 (HS 578T breast): 1640 nM | TGI (HS 578T breast): 7950 nM | GI50 (HT29 colon): 373 nM | TGI (HT29 colon): 2090 nM | GI50 (IGROV1 ovarian): 1060 nM | TGI (IGROV1 ovarian): 10800 nM | GI50 (K-562 leukemia): 548 nM | TGI (K-562 leukemia): 4960 nM | GI50 (KM12 colon): 745 nM | TGI (KM12 colon): 10200 nM | GI50 (LOX IMVI melanoma): 893 nM | TGI (LOX IMVI melanoma): 4030 nM | GI50 (M14 melanoma): 1830 nM | TGI (M14 melanoma): 6690 nM | GI50 (MALME-3M melanoma): 1720 nM | TGI (MALME-3M melanoma): 6310 nM | GI50 (MCF7 breast): 342 nM | TGI (MCF7 breast): 4380 nM | GI50 (MDA-MB-231 breast): 1090 nM | TGI (MDA-MB-231 breast): 3480 nM | GI50 (MDA-MB-435): 1060 nM | TGI (MDA-MB-435): 5930 nM | GI50 (MOLT-4 leukemia): 430 nM | TGI (MOLT-4 leukemia): 6230 nM | GI50 (NCI-H226 lung): 864 nM | TGI (NCI-H226 lung): 4560 nM | GI50 (NCI-H23 lung): 852 nM | TGI (NCI-H23 lung): 4280 nM | GI50 (NCI-H460 lung): 332 nM | TGI (NCI-H460 lung): 1340 nM | GI50 (NCI-H522 lung): 527 nM | TGI (NCI-H522 lung): 2020 nM | GI50 (NCI/ADR-RES ovarian): 4920 nM | TGI (NCI/ADR-RES ovarian): 25300 nM | GI50 (OVCAR-3 ovarian): 1180 nM | TGI (OVCAR-3 ovarian): 5350 nM | GI50 (OVCAR-4 ovarian): 1100 nM | TGI (OVCAR-4 ovarian): 3920 nM | GI50 (OVCAR-5 ovarian): 884 nM | TGI (OVCAR-5 ovarian): 5340 nM | GI50 (OVCAR-8 ovarian): 499 nM | TGI (OVCAR-8 ovarian): 7540 nM | GI50 (PC-3 prostate): 1110 nM | TGI (PC-3 prostate): 7060 nM | GI50 (RPMI-8226 leukemia): 1330 nM | TGI (RPMI-8226 leukemia): 5920 nM | GI50 (RXF 393 renal): 1160 nM | TGI (RXF 393 renal): 4420 nM | GI50 (SF-268 CNS): 604 nM | TGI (SF-268 CNS): 6530 nM | GI50 (SF-295 CNS): 909 nM | TGI (SF-295 CNS): 4870 nM | GI50 (SF-539 CNS): 455 nM | TGI (SF-539 CNS): 3480 nM | GI50 (SK-MEL-2 melanoma): 1300 nM | TGI (SK-MEL-2 melanoma): 3850 nM | GI50 (SK-MEL-28 melanoma): 2690 nM | TGI (SK-MEL-28 melanoma): 10500 nM | GI50 (SK-MEL-5 melanoma): 1730 nM | TGI (SK-MEL-5 melanoma): 5280 nM | GI50 (SK-OV-3 ovarian): 963 nM | TGI (SK-OV-3 ovarian): 8390 nM | GI50 (SN12C renal): 987 nM | TGI (SN12C renal): 9710 nM | GI50 (SNB-19 CNS): 685 nM | TGI (SNB-19 CNS): 10200 nM | GI50 (SNB-75 CNS): 1140 nM | TGI (SNB-75 CNS): 4940 nM | GI50 (SR leukemia): 507 nM | TGI (SR leukemia): 4200 nM | GI50 (SW-620 colon): 380 nM | TGI (SW-620 colon): 3570 nM | GI50 (T-47D breast): 754 nM | TGI (T-47D breast): 5280 nM | GI50 (TK-10 renal): 1310 nM | TGI (TK-10 renal): 5390 nM | GI50 (U251 CNS): 648 nM | TGI (U251 CNS): 5720 nM | GI50 (UACC-257 melanoma): 2800 nM | TGI (UACC-257 melanoma): 9960 nM | GI50 (UACC-62 melanoma): 998 nM | TGI (UACC-62 melanoma): 3580 nM | GI50 (UO-31 renal): 2020 nM | TGI (UO-31 renal): 8790 nM
